In patent US6346539B1, “Treatment of skin conditions” (BTG International Limited, priority 1998, dated 2002):
Where two headings read alike, the source gives them in different places.

Legend:
mouse melan-a cells = test: Melanocyte proliferant activity of piperine derivatives, SRB assay, 4 days, 10% FBS; format: cell-based; settings: for activity at 1 µM / activity at 10 µM / activity at 25 µM / activity at 50 µM / activity at 100 µM: Mus musculus, Melan-a, 96 h; for Active at 10 μM? / More active than piperine at higher conc. (μM)? / Active at higher conc. (μM)?: overall summary; for More active than piperine at higher conc. (μM)?: concentrations at which more active than piperine; for Relative activity to piperine: (A-100) compound/(A-100) piperine; for Active at higher conc. (μM)?: concentrations at which active
Procedure: The plates were incubated at 37° C. in a 10% CO2, 90% air humidified atmosphere for the stated length of time. At the end of the incubation, an SRB assay was performed. Briefly, cells attached to the bottom of the plate were fixed by addition of cold trichloroacetic acid (TCA, 4° C., Aldrich, Dorset, UK) on the top of the growth medium (final TCA 20% w/v). The plate was placed at 4° C. for 1 hour before being gently washed five times with tap water. It was allowed to dry in air, or aided with a hair dryer to speed up the drying process, then 50 μl of 4% w/v SRB dissolved in 1% acetic acid in water was added to each well for 30 min. At the end of the staining period, unbound SRB was removed by washing 4 times with 1% acetic acid. The plate was air dried again, and 150 μl of 10 mM aqueous Tris base (Sigma-Aldrich Co. Ltd, Irvine, UK) was added into each well to solubilize the cell-bound dye.
Various piperine derivatives of formula (1) were synthesised and tested for melanocyte (mouse melan-a) proliferant activity in-vitro. Cells we re incubated with the test compound for 4 days, as previously for the mouse cells but with 10% FBS, after which the sulphorhodamine-B (SRB) assay was performed to determnine cell number SRB uptake was measured as optical density at 550 nm. The control assay was carried out on cells incubated without test compound. There were 2 or 3 series of experiments, each of which consisted of six replcate experiments.
Percentage cell growth was obtained with a given compound calculated as (optical density in the presence of the compound/control optical density)×100.
Melan-a cell proliferant activity for tested compounds was compared with that obtained with piperine. […] All figures are given with Standard Error of the Mean.

melan-a cells = test: Dendricity of melan-a cells by observation under microscope; format: cell-based, mouse; design: key: +++: highly dendritic; ++: moderately dendritic; +: weakly dendritic; −: no effect
Excerpt: Effect on dendricity of melan-a cells by the test compounds was by observation under microscope. Dendricity is relevant to vitiligo since normal skin melanocytes have dendrites, but in vitiligo the melanocytes seem to lose these before they disappear from the patches.

[1] = read-out: growth of melan-a cells as % of control, dose experiment
[2] = 10 μM, read-out: growth of melan-a cells as % of control, dose experiment
[3] = single concentration (10 μM), melan-a, ± SEM, read-out: Percentage cell growth (Repeated experiments)
[4] = single concentration (10 μM), melan-a

Row | Structure (SMILES) | "cross-over" effect relative to piperine (mouse melan-a cells; 10 μM versus 50 μM) | activity at 1 µM (mouse melan-a cells; [1]) [%] | activity at 10 µM (mouse melan-a cells; [2]) [%] | activity at 25 µM (mouse melan-a cells; [1]) [%] | activity at 50 µM (mouse melan-a cells; [1]) [%] | activity at 10 µM (mouse melan-a cells; [3]) [%] | Active at 10 μM? (mouse melan-a cells; melan-a) | Stimulant activity (mouse melan-a cells; [4]) | Dendricity (melan-a cells; Table 7, 10 μM) | activity at 100 µM (mouse melan-a cells; [1]) [%] | Dentricity, dose experiment (melan-a cells; 1 μM) | Dentricity, dose experiment (melan-a cells; 10 μM) | Dentricity, dose experiment (melan-a cells; 50 μM) | More active than piperine at higher conc. (μM)? (mouse melan-a cells) | Relative activity to piperine (mouse melan-a cells; 10 μM) | Active at higher conc. (μM)? (mouse melan-a cells) | Dentricity, dose experiment (melan-a cells; 100 μM) | Dendricity (melan-a cells; Table 9, 10 μM)
1 | O=C(/C=C/C=C/c1ccc2c(c1)OCO2)N1CCCC1 [RV-A01, 5-E,E-piperinoylpyrrolidine] | less active than piperine at 10 μM but more active at 50 μM | 109 ± 7 | 122 ± 7 | 142 ± 21 | 186 ± 14 | 183 ± 34 | Yes | Positive | +++ |  |  |  |  |  |  |  |  | 
2 | O=C(/C=C/C=C/c1ccc2c(c1)OCO2)N1CCOCC1 [RV-A02, 5-E,E-piperinoyl morpholine] |  | 125 ± 10 | 167 ± 17 | 171 ± 8 | 168 ± 12 |  | Yes | Positive | +++ |  |  |  |  |  |  |  |  | 
3 | O=C(/C=C/C=C/c1ccc2c(c1)OCO2)NCc1ccc2c(c1)OCO2 [RV-A04, 5-E,E-piperinoylpiperinolymine] |  | 101 ± 12 | 138 ± 10 |  | 150 ± 15 |  | Yes^a | Non- significant here, but positive in dose response test | + | 71 ± 9 | − | + | + |  |  |  |  | 
4 | CCCCCCNC(=O)/C=C/C=C/c1ccc2c(c1)OCO2 [RV-A05, 5-E,E-piperinoylhexylamine] |  | 155 ± 9 | 188 ± 13 | 178 ± 18 | 178 ± 8 |  | Yes | Positive | +++ |  |  |  |  | No |  |  |  | 
5 | CC(C)CNC(=O)/C=C/C=C/c1ccc2c(c1)OCO2 [RV-A06, Piperlonguminine] |  | 134 ± 7 | 188 ± 14 | 172 ± 15 | 135 ± 24 | 147 ± 66 | Yes | Positive | +++ |  |  |  |  | No |  |  |  | 
6 | CNC(=O)/C=C/C=C/c1ccc2c(c1)OCO2 [RV-A07, 5-E,E-piperinoylmethylamine] |  | 140 ± 12 | 170 ± 24 |  | 71 ± 5 | 170 ± 24 | Yes | Positive | ++ | 46 ± 2 | ++ | ++ | + | No | 0.6 | No | + | 
7 | CCNC(=O)/C=C/C=C/c1ccc2c(c1)OCO2 [RV-A08, 5-E,E-piperinoylethylamine] |  | 139 ± 27 | 200 ± 14 |  | 81 ± 12 | 200 ± 14 | Yes | Positive | +++ | 62 ± 13 | ++ | +++ | + | No | 0.73 | No | + | 
8 | CC(C)NC(=O)/C=C/C=C/c1ccc2c(c1)OCO2 [RV-A09, 5-E,E-piperinoylisopropylamine] |  | 187 ± 15 | 224 ± 19 |  | 85 ± 5 | 224 ± 19 | Yes | Positive | +++ | 42 ± 6 | +++ | +++ | + | No | 0.76 | No | + | 
9 | O=C(/C=C/C=C/c1ccc2c(c1)OCO2)NC1CCCCC1 [RV-A10, 5-E,E-piperinoyl cyclohexylamine] |  | 301 ± 20 | 308 ± 29 |  | 155 ± 22 | 308 ± 29 | Yes | Positive | +++ | 100 ± 13 | +++ | +++ | + |  | 1.02 |  | + | 
10 | CCCCNC(=O)/C=C/C=C/c1ccc2c(c1)OCO2 [RV-A11, 5-E,E-piperinoylbutylamine] |  | 189 ± 6 | 264 ± 21 |  | 158 ± 20 | 264 ± 21 | Yes | Positive | +++ | 84 ± 6 | +++ | +++ | ++ |  | 0.66 |  | + | 
11 | COC(=O)/C=C/C=C/c1ccc2c(c1)OCO2 [RV-AB1, 5-E,E-piperinic Acid Methyl Ester] |  | 125 ± 13 | 147 ± 16 |  | 187 ± 12 |  | Yes | Positive |  | 171 ± 8 | − | + | ++ |  |  |  | ++ | ++
12 | CCOC(=O)/C=C/C=C/c1ccc2c(c1)OCO2 [RV-AB2, 5-E,E-piperinic Acid Ethyl Ester] |  |  |  |  |  | 29 ± 9 | No^c | Positive |  |  |  |  |  |  |  |  |  | Toxic
13 | CC(C)OC(=O)/C=C/C=C/c1ccc2c(c1)OCO2 [RV-AB4, 5-E,E-piperinic Acid Isopropyl Ester] |  | 175 ± 6 | 224 ± 12 |  | 148 ± 19 | 224 ± 12 | Yes | Positive |  | 90 ± 7 | ++ | ++ | ++ |  | 0.8 |  | + | ++
14 | CCCOC(=O)/C=C/C=C/c1ccc2c(c1)OCO2 [RV-AB5, 5-E,E-piperinic Acid Propyl Ester] |  | 120 ± 21 | 151 ± 19 |  | 163 ± 8 | 166 ± 35 | Yes | Positive |  | 123 ± 8 | − | ++ | ++ |  | 0.95 |  | + | ++
15 | COC(=O)/C=C/c1ccc2c(c1)OCO2 [RV-BB1, 3-trans-benzo-1,3-dioxol-5-ylacrylic acid methyl ester] |  |  |  |  |  |  | No^b | Non- significant |  |  |  |  |  |  |  |  |  | 
